Data: the Deep4Chem optical property database
One block for each compound: values may come before it.

Test: solvent given as SMILES

SMILES: COc1ccc2c(c1)CCC1=C(C#Cc3cc4ccccc4c4ccccc34)O[B-](F)(F)[O+]=C12
- fluorescence lifetime (in ClCCl): 1.33 ns

SMILES: F[B-]1(F)OC(c2ccccc2)=Cc2cc(Cl)nc[n+]21
- fluorescence lifetime (in Cc1ccccc1): 0.19 ns

SMILES: N#CC(C#N)=C(/C=C/c1ccc(N(c2ccccc2)c2ccccc2)cc1)c1ccc2c3c(cccc13)CC2
- fluorescence lifetime (in C1CCOC1): 3.5 ns
- fluorescence lifetime (in CC#N): 1.22 ns
- fluorescence lifetime (in CC(C)=O): 1.04 ns
- fluorescence lifetime (in CCOC(C)=O): 3.01 ns
- fluorescence lifetime (in CN(C)C=O): 1.02 ns
- fluorescence lifetime (in CO): 2.1 ns
- fluorescence lifetime (in Cc1ccccc1): 2.26 ns
- fluorescence lifetime (in ClC(Cl)Cl): 6.54 ns

SMILES: CC(C)(C)c1ccc(-n2c(-c3ccc(N(c4ccc(-c5ccc(N(c6ccc(-c7nc8c9ccccc9c9ccccc9c8n7-c7ccc(C(C)(C)C)cc7)cc6)c6ccc(-c7nc8c9ccccc9c9ccccc9c8n7-c7ccc(C(C)(C)C)cc7)cc6)cc5)cc4)c4ccc(-c5nc6c7ccccc7c7ccccc7c6n5-c5ccc(C(C)(C)C)cc5)cc4)cc3)nc3c4ccccc4c4ccccc4c32)cc1
- fluorescence lifetime (in ClCCl): 3.8 ns

SMILES: CC1=CC(C)=[N+]2C1=C(c1ccc(-c3ccc(O)cc3)s1)c1c(C)cc(C)n1[B-]2(F)F
- fluorescence lifetime (in Cc1ccccc1): 3.5 ns

SMILES: COc1cc(N(c2ccccc2)c2ccccc2)ccc1C=C(C#N)C#N
- fluorescence lifetime (in C1COCCO1): 0.04 ns
- fluorescence lifetime (in CC#N): 0.02 ns
- fluorescence lifetime (in CC(C)=O): 0.05 ns
- fluorescence lifetime (in CCOC(C)=O): 0.07 ns
- fluorescence lifetime (in CN(C)C=O): 0.03 ns
- fluorescence lifetime (in CO): 0.02 ns
- fluorescence lifetime (in Cc1ccccc1): 0.03 ns
- fluorescence lifetime (in ClC(Cl)Cl): 0.1 ns
- fluorescence lifetime (in ClCCl): 0.06 ns

SMILES: N#Cc1cc(-n2c3ccccc3c3ncccc32)c(-n2c3ccccc3c3ncccc32)cc1C#N
- fluorescence lifetime (in c1cc(-n2c3ccccc3c3ccccc32)cc(-n2c3ccccc3c3ccccc32)c1): 70 ns

SMILES: CCCCCCCc1ccc(C2=[N+]3C(=C4c5cc(OCC(CC)CC)c(-c6ccc(CCCCCCC)o6)n5[B-](F)(F)[n+]5c4n(c4cc(C(C)(C)C)ccc45)[B-]3(F)F)C=C2OCC(CC)CC)o1
- fluorescence lifetime (in C1CCOC1): 0.4 ns
- fluorescence lifetime (in ClCCl): 0.4 ns

SMILES: COc1ccc(-c2nc(C(C)=O)c(C)o2)cc1
- fluorescence lifetime (in CC#N): 3.92 ns
- fluorescence lifetime (in CCO): 2.31 ns
- fluorescence lifetime (in CCOC(C)=O): 4.53 ns
- fluorescence lifetime (in CCOCC): 1.79 ns
- fluorescence lifetime (in ClCCl): 1.7 ns

SMILES: Fc1c(-n2c3ccccc3c3ccccc32)c(-c2nnc(-c3ccccc3)o2)c(-n2c3ccccc3c3ccccc32)c(-n2c3ccccc3c3ccccc32)c1-n1c2ccccc2c2ccccc21
- fluorescence lifetime (in Cc1ccccc1): 3.2 ns

SMILES: c1ccn(-c2ccc(-c3cc(-c4ccc(-n5cccc5)cc4)cc(-c4ccc(-n5cccc5)cc4)c3)cc2)c1
- fluorescence lifetime (in ClCCl): 2.98 ns

SMILES: CCOC(=O)CN1C(=O)C2=C(c3ccc(N4CCCCC4)cc3)N(CC(=O)OCC)C(=O)C2=C1c1ccccc1
- fluorescence lifetime (in CC#N): 2.7 ns
- fluorescence lifetime (in CS(C)=O): 6.7 ns
- fluorescence lifetime (in Cc1ccccc1): 4 ns

SMILES: C(#Cc1ccccc1)C(C#Cc1ccccc1)=Cc1ccc2cc(C=C(C#Cc3ccccc3)C#Cc3ccccc3)ccc2c1
- fluorescence lifetime (in ClC(Cl)Cl): 1.1 ns

SMILES: Nc1ccc2c3c(cccc13)C(=O)c1ccccc1-2
- fluorescence lifetime (in CC#N): 5.9 ns
- fluorescence lifetime (in CC(C)=O): 6.9 ns
- fluorescence lifetime (in CC(C)O): 2 ns
- fluorescence lifetime (in CCCCOCCCC): 9.2 ns
- fluorescence lifetime (in CCOC(C)=O): 7.1 ns
- fluorescence lifetime (in CCOCC): 9.5 ns
- fluorescence lifetime (in CO): 1.5 ns
- fluorescence lifetime (in Cc1ccccc1): 9.2 ns
- fluorescence lifetime (in Clc1ccccc1): 8.6 ns
- fluorescence lifetime (in N#Cc1ccccc1): 7.5 ns
- fluorescence lifetime (in O=C1CCCCC1): 7.8 ns

SMILES: N#Cc1c(-n2c3ccccc3c3cc(Br)ccc32)c(C#N)c(-n2c3ccccc3c3cc(Br)ccc32)c(-n2c3ccccc3c3cc(Br)ccc32)c1-n1c2ccccc2c2cc(Br)ccc21
- fluorescence lifetime (in Cc1ccccc1): 0.4 ns

The next lines start with the values.

- fluorescence lifetime (in ClC(Cl)Cl): 3.5 ns
SMILES: CN(C)c1ccc(-c2cc(-c3ccc(C#N)cc3)nc(-c3ccccc3)n2)cc1

- fluorescence lifetime (in C1CCOC1): 13.2 ns
- fluorescence lifetime (in CC#N): 5.2 ns
- fluorescence lifetime (in CCCCCC): 18.9 ns
SMILES: CC(O)CC1=N/C(=C\c2cccc(N(C)C)c2)C(=O)N1C (stereo not drawn)

- fluorescence lifetime (in C1CCCCC1): 8.8 ns
- fluorescence lifetime (in CC#N): 2.2 ns
- fluorescence lifetime (in c1ccccc1): 8.4 ns
SMILES: CNc1cccc2c1-c1ccccc1C2=O

- fluorescence lifetime (in C1CCOC1): 12.3 ns
- fluorescence lifetime (in CN(C)C=O): 12.5 ns
SMILES: O=C(O)c1ccc2cc3cc(C(=O)O)ccc3cc2c1

- fluorescence lifetime (in ClC(Cl)Cl): 1.4 ns
SMILES: O=c1oc2ccccc2cc1-c1ccc(-c2cc3ccccc3oc2=O)cc1

- fluorescence lifetime (in ClC(Cl)Cl): 0.203 ns
SMILES: CN(C)c1ccc(/C=C/c2cc[n+](CCCCCCCCCCCC[n+]3ccc(/C=C/c4ccc(N(C)C)cc4)cc3)cc2)cc1

- fluorescence lifetime (in O): 0.74 ns
SMILES: Cc1cn(CCCn2cc(C)c(=O)[nH]c2=O)c(=O)nc1-n1cncn1

- fluorescence lifetime (in CC#N): 3.9 ns
SMILES: Cc1cc(C)c2nc3c(=O)n(C)c(=O)nc-3n(C)c2c1

- fluorescence lifetime (in CCCO): 3.9 ns
SMILES: CCOC(=O)c1ccc2c(c1)sc1c3ccc(C(=O)OCC)cc3n(C)c21

- fluorescence lifetime (in ClCCl): 2.53 ns
SMILES: COc1ccc2c(c1)CCC1=C(C#Cc3ccc(Cl)cc3)O[B-](F)(F)[O+]=C12

- fluorescence lifetime (in C1CCCCC1): 17.7 ns
SMILES: COc1ccc(-c2ccc(OC)cc2)cc1
